Laboratory results published in patent US9670212B2, “Inhibitors of PI3K-delta and methods of their use and manufacture” (Exelixis, Inc., priority 2010, dated 2017).

Target: PI3K delta (Homo sapiens (Human), UniProt O00329)
Assay: Luciferase-coupled chemiluminescence kinase assay (KinaseGlo, ATP consumption)
Format: biochemical
Experimental: Kinase activity and compound inhibition were investigated using one or more of the assay formats described below. The ATP concentrations used in the various assays were approximately equal to or less than the KM for each of the respective kinases. Dose-response experiments were performed using an intra-plate dilution scheme with 10 different inhibitor concentrations in a 384-well microtiter plate. […] Typically N should approximate unity. Curve fitting was performed using XLFit or ActivityBase. Luciferase-Coupled Chemiluminescence Assay Protocol
Kinase activity is measured as the percent of ATP consumed following the kinase reaction using luciferase-luciferin-coupled chemiluminescence. […] Kinase reactions were initiated by combining test compounds, kinase, and ATP in a 20 μL volume (6 μL volume for 1536-well plate). The reaction mixture was incubated at ambient temperature for 2 h. Following the kinase reaction, a 20 μL (or 3 μL for 1536-well plate) aliquot of KinaseGlo (Promega) was added and the chemiluminescence signal measured using an EnVision plate reader (Perkin Elmer).

Chain of PI3K delta (O00329 whole entry): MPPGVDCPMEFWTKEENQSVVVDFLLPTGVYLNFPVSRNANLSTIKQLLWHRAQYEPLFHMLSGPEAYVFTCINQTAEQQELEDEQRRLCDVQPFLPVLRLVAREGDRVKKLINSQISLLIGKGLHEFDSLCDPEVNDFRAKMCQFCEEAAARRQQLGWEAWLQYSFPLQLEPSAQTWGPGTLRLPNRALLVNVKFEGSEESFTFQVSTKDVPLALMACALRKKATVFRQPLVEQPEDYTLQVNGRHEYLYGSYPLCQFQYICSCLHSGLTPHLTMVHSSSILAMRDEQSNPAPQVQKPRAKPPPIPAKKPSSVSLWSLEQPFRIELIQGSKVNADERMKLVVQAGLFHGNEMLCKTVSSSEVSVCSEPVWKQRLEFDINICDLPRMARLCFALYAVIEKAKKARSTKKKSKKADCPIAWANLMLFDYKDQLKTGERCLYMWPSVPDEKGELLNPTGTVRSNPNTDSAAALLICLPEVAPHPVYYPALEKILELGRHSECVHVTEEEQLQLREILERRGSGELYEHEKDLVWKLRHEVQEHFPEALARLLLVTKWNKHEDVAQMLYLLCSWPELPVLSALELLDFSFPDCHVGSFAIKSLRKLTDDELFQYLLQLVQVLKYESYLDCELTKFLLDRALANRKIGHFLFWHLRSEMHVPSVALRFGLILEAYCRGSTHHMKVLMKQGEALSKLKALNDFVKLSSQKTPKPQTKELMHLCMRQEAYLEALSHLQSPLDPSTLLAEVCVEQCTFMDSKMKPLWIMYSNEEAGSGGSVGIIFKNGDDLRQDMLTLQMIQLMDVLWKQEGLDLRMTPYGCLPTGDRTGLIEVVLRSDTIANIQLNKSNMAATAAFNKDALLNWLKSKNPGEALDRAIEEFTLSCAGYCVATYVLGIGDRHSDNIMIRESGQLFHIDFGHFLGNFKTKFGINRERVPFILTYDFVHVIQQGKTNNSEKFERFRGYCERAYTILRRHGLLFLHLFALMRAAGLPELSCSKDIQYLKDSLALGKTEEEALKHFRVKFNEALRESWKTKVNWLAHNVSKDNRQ
Chain of PI3K delta (P27986 whole entry partner): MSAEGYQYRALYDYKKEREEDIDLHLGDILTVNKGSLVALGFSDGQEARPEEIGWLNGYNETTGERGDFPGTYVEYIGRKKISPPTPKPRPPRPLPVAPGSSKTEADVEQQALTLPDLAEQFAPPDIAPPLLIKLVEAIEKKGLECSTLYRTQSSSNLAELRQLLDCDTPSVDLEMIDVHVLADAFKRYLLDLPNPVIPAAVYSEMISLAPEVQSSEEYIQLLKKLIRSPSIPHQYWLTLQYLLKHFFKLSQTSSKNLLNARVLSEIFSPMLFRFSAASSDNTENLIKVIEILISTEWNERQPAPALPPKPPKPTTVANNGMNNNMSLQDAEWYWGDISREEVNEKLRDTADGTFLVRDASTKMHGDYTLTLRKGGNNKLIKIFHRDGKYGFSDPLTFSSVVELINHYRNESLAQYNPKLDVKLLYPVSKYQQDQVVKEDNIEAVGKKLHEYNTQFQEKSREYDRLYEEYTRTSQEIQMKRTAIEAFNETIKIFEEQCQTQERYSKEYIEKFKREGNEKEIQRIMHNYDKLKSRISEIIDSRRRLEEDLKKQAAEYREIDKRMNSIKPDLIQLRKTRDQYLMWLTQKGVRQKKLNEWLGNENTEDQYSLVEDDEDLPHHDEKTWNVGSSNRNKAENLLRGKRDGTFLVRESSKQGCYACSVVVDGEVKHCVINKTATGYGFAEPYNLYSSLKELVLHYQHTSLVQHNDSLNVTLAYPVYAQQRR

SMILES | IC50 [nM]
Cc1cccc2cc(CNC(=O)c3nccnc3N)c(N3CC(C)NC[C@H]3C)nc12 (stereo in doubt) [Compound 123, 3-amino-N-({2-[(2R,5S)-2,5-dimethylpiperazin-1-yl]-8-methylquinolin-3-yl}methyl)pyrazine-2-carboxamide] | 250 to 500
Cc1cccc2cc(CNc3cccc4c3OCCO4)c(-c3ccccc3Cl)nc12 [Compound 5] | 500 to 1500
COc1cccc(CNCc2cc3cccc(C)c3nc2-c2ccccc2Cl)c1 [Compound 6, 1-[2-(2-chlorophenyl)-8-methylquinolin-3-yl]-N-{[3-(methyloxy)phenyl]methyl}methanamine] | 500 to 1500
Cc1cccc2cc(COc3ccc4c(c3)OCO4)c(-c3ccccc3Cl)nc12 [Compound 8, 3-[(1,3-benzodioxol-5-yloxy)methyl]-2-(2-chlorophenyl)-8-methylquinoline] | 500 to 1500
COc1ccccc1NCc1cc2cccc(C)c2nc1-c1ccccc1Cl [Compound 11, N-{[2-(2-chlorophenyl)-8-methylquinolin-3-yl]methyl}-2-(methyloxy)aniline] | 500 to 1500
Cc1cccc2cc(Cn3cnc4c(N)ncnc43)c(N3CCc4ccccc4C3)nc12 [Compound 14, 9-{[2-(3,4-dihydroisoquinolin-2(1H)-yl)-8-methylquinolin-3-yl]methyl}-9H-purin-6-amine] | 500 to 1500
COc1ccc(OCc2cc3cccc(C)c3nc2-c2ccccc2Cl)cc1 [Compound 16, 2-(2-chlorophenyl)-8-methyl-3-({[4-(methyloxy)phenyl]oxy}methyl)quinoline] | 500 to 1500
COc1ccc(OC(C)c2cc3cccc(C)c3nc2-c2ccccc2Cl)cc1 (stereo not shown) [Compound 17, 2-(2-chlorophenyl)-8-methyl-3-(1-{[4-(methyloxy)phenyl]oxy}ethyl)quinoline] | 500 to 1500
CNCCN(C)c1nc2c(C)cccc2cc1CN1CCOCC1 [Compound 21, N,N′-dimethyl-N-[8-methyl-3-(morpholin-4-ylmethyl)quinolin-2-yl]ethane-1,2-diamine] | 500 to 1500
Cc1cccc2cc(Cn3cnc4c(N)ncnc43)c(N(C)CCN(C)C(=O)Cn3cccn3)nc12 [Compound 28, N-{2-[{3-[(6-amino-9H-purin-9-yl)methyl]-8-methylquinolin-2-yl}(methyl)amino]ethyl}-N-methyl-2-(1H-pyrazol-1-yl)acetamide] | < 50
CNCCN(C)c1nc2c(C)cccc2cc1-c1nnc(-c2nccnc2N)o1 [Compound 29, N-{3-[5-(3-aminopyrazin-2-yl)-1,3,4-oxadiazol-2-yl]-8-methylquinolin-2-yl}-N,N′-dimethylethane-1,2-diamine] | 500 to 1500
Cc1cccc2cc(CNC(=O)c3nccnc3N)c(N(C)CC3CCCN(C)C3)nc12 (stereo not shown) [Compound 30, 3-amino-N-[(8-methyl-2-{methyl[(1-methylpiperidin-3-yl)methyl]amino}quinolin-3-yl)methyl]pyrazine-2-carboxamide] | < 50
Cc1cccc2cc(CNC(=O)c3nccnc3N)c(N(C)CC3CCN(C)CC3)nc12 [Compound 31, 3-amino-N-[(8-methyl-2-{methyl[(1-methylpiperidin-4-yl)methyl]amino}quinolin-3-yl)methyl]pyrazine-2-carboxamide] | < 50
Cc1cccc2cc(Cn3cnc4c(N)ncnc43)c(N(C)CCN(C)C(=O)Cn3ccnn3)nc12 [Compound 34, N-{2-[{3-[(6-amino-9H-purin-9-yl)methyl]-8-methylquinolin-2-yl}(methyl)amino]ethyl}-N-methyl-2-(1H-1,2,3-triazol-1-yl)acetamide] | < 50
CNCCN(C)c1nc2c(C)cccc2cc1CNC(=O)C1(C(=O)NC)CC1 [Compound 40, N-methyl-N′-[(8-methyl-2-{methyl[2-(methylamino)ethyl]amino}quinolin-3-yl)methyl]cyclopropane-1,1-dicarboxamide] | 500 to 1500
CC(=O)N1CCN(c2nc3ccccc3nc2Nc2cccc(C(N)=O)c2)CC1 [Compound 41, 3-{[3-(4-acetylpiperazin-1-yl)quinoxalin-2-yl]amino}benzamide] | 500 to 1500
Cc1cccc2cc(CNC(=O)c3nccnc3N)c(N(C)CCN(C)C(=O)Cn3cnnn3)nc12 [Compound 42, 3-amino-N-{[8-methyl-2-(methyl{2-[methyl(1H-tetrazol-1-ylacetyl)amino]ethyl}amino)quinolin-3-yl]methyl}pyrazine-2-carboxamide] | < 50
Cc1nc(C)n(CC(=O)N(C)CCN(C)c2nc3c(C)cccc3cc2CNC(=O)c2nccnc2N)n1 [Compound 43, 3-amino-N-({2-[(2-{[(3,5-dimethyl-1H-1,2,4-triazol-1-yl)acetyl](methyl)amino}ethyl)(methyl)amino]-8-methylquinolin-3-yl}methyl)pyrazine-2-carboxamide] | < 50
Cc1cccc2cc(CNC(=O)c3nccnc3N)c(N3CCC(NCC(=O)N(C)C)C3)nc12 (stereo not shown) [Compound 44, 3-amino-N-{[2-(3-{[2-(dimethylamino)-2-oxoethyl]amino}pyrrolidin-1-yl)-8-methylquinolin-3-yl]methyl}pyrazine-2-carboxamide] | 500 to 1500

Now from value to compound:

IC50 [nM] | SMILES
50 to 250 | Cc1cccc2cc(CSc3ncnc4[nH]cnc34)c(N(C)CC3CCN(C)CC3)nc12 [Compound 1, N,8-dimethyl-N-[(1-methylpiperidin-4-yl)methyl]-3-[(9H-purin-6-ylthio)methyl]quinolin-2-amine]
< 50 | Cc1cccc2cc(Cn3cnc4c(N)ncnc43)c(N(C)CC3CCCN3C)nc12 (stereo not shown) [Compound 2, 3-[(6-amino-9H-purin-9-yl)methyl]-N,8-dimethyl-N-[(1-methylpyrrolidin-2-yl)methyl]quinolin-2-amine]
< 50 | Cc1cccc2cc(Cn3cnc4c(N)ncnc43)c(N(C)CC3CCCCN3C)nc12 (stereo not shown) [Compound 3, 3-[(6-amino-9H-purin-9-yl)methyl]-N,8-dimethyl-N-[(1-methylpiperidin-2-yl)methyl]quinolin-2-amine]
< 50 | Cc1cccc2cc(Cn3cnc4c(N)ncnc43)c(N(C)CC3CCN(C)CC3)nc12 [Compound 4, 3-[(6-amino-9H-purin-9-yl)methyl]-N,8-dimethyl-N-[(1-methylpiperidin-4-yl)methyl]quinolin-2-amine]
< 50 | Cc1cccc2cc(CNc3ncnc4[nH]cnc34)c(N3CCN4CCCCC4C3)nc12 (stereo not shown) [Compound 12, N-{[8-methyl-2-(octahydro-2H-pyrido[1,2-a]pyrazin-2-yl)quinolin-3-yl]methyl}-9H-purin-6-amine]
500 to 1500 | Cc1cccc2cc(CNc3ncnc4[nH]cnc34)c(N3CCc4ccccc4C3)nc12 [Compound 19, N-{[2-(3,4-dihydroisoquinolin-2(1H)-yl)-8-methylquinolin-3-yl]methyl}-9H-purin-6-amine]
500 to 1500 | CNCCN(C)c1nc2c(C)cccc2cc1CNc1ccc(OC)cc1 [Compound 20, N,N′-dimethyl-N-[8-methyl-3-({[4-(methyloxy)phenyl]amino}methyl)quinolin-2-yl]ethane-1,2-diamine]
500 to 1500 | CNCCN(C)c1nc2c(C)cccc2cc1COc1ccc(OC)cc1 [Compound 23, N,N′-dimethyl-N-[8-methyl-3-({[4-(methyloxy)phenyl]oxy}methyl)quinolin-2-yl]ethane-1,2-diamine]
< 50 | COCCN(C)c1nc2c(C)cccc2cc1CNc1ncnc2[nH]cnc12 [Compound 25, N,8-dimethyl-N-[2-(methyloxy)ethyl]-3-[(9H-purin-6-ylamino)methyl]quinolin-2-amine]
50 to 250 | CCCCN(C)c1nc2c(C)cccc2cc1CNc1ncnc2[nH]cnc12 [Compound 26, N-butyl-N,8-dimethyl-3-[(9H-purin-6-ylamino)methyl]quinolin-2-amine]
50 to 250 | Cc1cccc2cc(CNc3ncnc4[nH]cnc34)c(N3CCCCC3)nc12 [Compound 27, N-[(8-methyl-2-piperidin-1-ylquinolin-3-yl)methyl]-9H-purin-6-amine]
< 50 | Cc1cccc2cc(CNc3ncnc4[nH]cnc34)c(N(C)CC3CCCN(C)C3)nc12 (stereo not shown) [Compound 32, N,8-dimethyl-N-[(1-methylpiperidin-3-yl)methyl]-3-[(9H-purin-6-ylamino)methyl]quinolin-2-amine]
< 50 | Cc1cccc2cc(CNc3ncnc4[nH]cnc34)c(N(C)CC3CCN(C)CC3)nc12 [Compound 33, N,8-dimethyl-N-[(1-methylpiperidin-4-yl)methyl]-3-[(9H-purin-6-ylamino)methyl]quinolin-2-amine]
< 50 | Cc1cccc2cc(CNc3ncnc4[nH]cnc34)c(N(C)CCN(C)C(=O)Cn3ccnn3)nc12 [Compound 35, N-methyl-N-[2-(methyl{8-methyl-3-[(9H-purin-6-ylamino)methyl]quinolin-2-yl}amino)ethyl]-2-(1H-1,2,3-triazol-1-yl)acetamide]
< 50 | CNCCN(C)c1nc2c(C)cccc2cc1CNc1ncnc2[nH]cnc12 [Compound 36, N,N′-dimethyl-N-{8-methyl-3-[(9H-purin-6-ylamino)methyl]quinolin-2-yl}ethane-1,2-diamine]
< 50 | Cc1cccc2cc(CNc3ncnc4[nH]cnc34)c(N3CCNCC3)nc12 [Compound 37, N-[(8-methyl-2-piperazin-1-ylquinolin-3-yl)methyl]-9H-purin-6-amine]
< 50 | Cc1cccc2cc(CNc3ncnc4[nH]cnc34)c(N(C)CC3CCCCN3C)nc12 (stereo not shown) [Compound 38, N,8-dimethyl-N-[(1-methylpiperidin-2-yl)methyl]-3-[(9H-purin-6-ylamino)methyl]quinolin-2-amine]
< 50 | Cc1cccc2cc(CNC(=O)c3nccnc3N)c(N(C)CC3CCCCN3C)nc12 (stereo not shown) [Compound 39, 3-amino-N-[(8-methyl-2-{methyl[(1-methylpiperidin-2-yl)methyl]amino}quinolin-3-yl)methyl]pyrazine-2-carboxamide]
